Assay results reported in patent US20240158446A1, “CYCLIC COMPOUND HAVING SELECTIVE INHIBITORY ACTION ON KRAS OVER HRAS AND NRAS” (CHUGAI SEIYAKU KABUSHIKI KAISHA, priority 2021, published 2024).

Key:
[1] = target: GDP-bound KRAS wild-type protein (Homo sapiens, UniProt P01116); experiment: Binding to KRAS by surface plasmon resonance (SPR), Single Cycle Kinetics; conditions: SPR, Single Cycle Kinetics, GDP-bound KRAS wild-type protein; read-out: KRAS KD
[2] = target: GDP-bound NRAS wild-type protein (Homo sapiens, UniProt P01111); experiment: Binding to NRAS by surface plasmon resonance (SPR), Single Cycle Kinetics; conditions: ratio of KD for GDP-bound NRAS wild-type protein to KD for KRAS, SPR
GDP-bound NRAS wild-type protein, sequence (P01111 whole entry): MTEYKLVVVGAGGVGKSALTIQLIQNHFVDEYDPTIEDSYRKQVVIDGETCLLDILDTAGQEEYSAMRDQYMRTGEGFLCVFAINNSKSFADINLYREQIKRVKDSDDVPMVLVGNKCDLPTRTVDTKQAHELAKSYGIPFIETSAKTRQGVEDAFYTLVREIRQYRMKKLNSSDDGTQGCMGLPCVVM

[3] = target: GDP-bound HRAS wild-type protein (Homo sapiens, UniProt P01112); experiment: Binding to HRAS by surface plasmon resonance (SPR), Single Cycle Kinetics; conditions: ratio of KD for GDP-bound HRAS wild-type protein to KD for KRAS, SPR
GDP-bound HRAS wild-type protein, sequence (P01112 whole entry): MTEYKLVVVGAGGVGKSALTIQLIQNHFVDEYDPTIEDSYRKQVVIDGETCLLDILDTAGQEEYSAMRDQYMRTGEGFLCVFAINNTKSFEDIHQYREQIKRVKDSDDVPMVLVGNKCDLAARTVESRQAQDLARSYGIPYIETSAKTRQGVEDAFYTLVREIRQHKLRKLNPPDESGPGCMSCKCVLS

[4] = tested on: human lung cancer strain NCI-H441; experiment: cells; conditions: NCI-H441, 96 h, read-out: NCI-H441 IC50 (nM), NCI-H441 cell proliferation, 4 days, CellTiter-Glo;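 further: cell proliferation inhibition after four days measured by CellTiter-Glo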

GDP-bound KRAS wild-type protein, sequence (P01116 whole entry): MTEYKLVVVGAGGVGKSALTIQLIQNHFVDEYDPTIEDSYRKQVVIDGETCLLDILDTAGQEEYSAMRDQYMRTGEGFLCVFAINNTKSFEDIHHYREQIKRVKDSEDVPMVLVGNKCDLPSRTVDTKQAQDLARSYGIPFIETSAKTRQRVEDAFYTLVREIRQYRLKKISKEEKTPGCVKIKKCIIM

Kd [1]	IC50 [4]	Structure (SMILES)	NRAS/KRAS (KD ratio) [2]	HRAS/KRAS (KD ratio) [3]
0.058 nM	3.8 nM	CC[C@H](C)[C@@H]1NC(=O)[C@H](CC(F)F)N(C)C(=O)C[C@@H](C(=O)N(C)C)N(C)C(=O)[C@H](C2CCCC2)N(C)C(=O)C2(CC(C)(C)C2)NC(=O)[C@@H]2CC(F)(F)CN2C(=O)[C@H](CCc2cc(F)c(C(F)(F)F)c(F)c2)NC(=O)CN(C)C(=O)[C@H](Cc2ccc(C(F)(F)F)cc2)N2CC/C=C\C[C@@H](C2=O)N(C)C(=O)CN(C)C1=O [PP1709]	A (a compound having 10 or more and less than 20 is denoted as A)	A (a compound having 10 or more and less than 20 is denoted as A)
0.11 nM	13.4 nM	CCCN(C)C(=O)[C@@H]1CC(=O)N(C)[C@@H](CCOC)C(=O)N[C@@H]([C@@H](C)CC)C(=O)N(C)CC(=O)N(C)[C@H]2C/C=C\CCN(C2=O)[C@@H](Cc2ccc(C(F)(F)F)cc2)C(=O)N(C)CC(=O)N[C@@H](CCc2ccc(C(F)(F)F)c(OC)c2)C(=O)N2C[C@H](OCC)C[C@H]2C(=O)NC2(CC(C)(C)C2)C(=O)N(C)[C@@H](C2CCCC2)C(=O)N1C [PP1975]	A (a compound having 10 or more and less than 20 is denoted as A)	A (a compound having 10 or more and less than 20 is denoted as A)
0.047 nM	3.6 nM	CCCOC[C@H]1C(=O)N[C@@H]([C@@H](C)CC)C(=O)N(C)CC(=O)N(C)[C@H]2C/C=C\CCN(C2=O)[C@@H](Cc2ccc(C(F)(F)F)cc2)C(=O)N(C)CC(=O)N[C@@H](CCc2cc(F)c(C(F)(F)F)c(F)c2)C(=O)N2C[C@H](F)C[C@H]2C(=O)NC2(CC(C)(C)C2)C(=O)N(C)[C@@H](C2CCCC2)C(=O)N(C)[C@H](C(=O)N(C)CC)CC(=O)N1C [PP1697]	A (a compound having 10 or more and less than 20 is denoted as A)	A (a compound having 10 or more and less than 20 is denoted as A)
0.064 nM	2.2 nM	CCCC[C@H]1C(=O)N[C@@H]([C@@H](C)CC)C(=O)N(C)CC(=O)N(C)[C@H]2C/C=C\CCN(C2=O)[C@@H](Cc2ccc(C(F)(F)F)cc2)C(=O)N(C)CC(=O)N[C@@H](CCc2cc(F)c(C(F)(F)F)c(F)c2)C(=O)N2C[C@H](OCC)C[C@H]2C(=O)NC2(CC(C)(C)C2)C(=O)N(C)[C@@H](C2CCCC2)C(=O)N(C)[C@H](C(=O)N(C)C)CC(=O)N1C [PP1649]	A (a compound having 10 or more and less than 20 is denoted as A)	B (a compound having 3 or more and less than 10 is denoted as B)
0.1 nM	5.1 nM	CCO[C@@H]1C[C@H]2C(=O)N(C)C3(CCC3)C(=O)N(C)[C@@H](C3CCCC3)C(=O)N(C)[C@H](C(=O)N(C)C)CC(=O)N(C)[C@@H](CC3CC3)C(=O)N[C@@H]([C@@H](C)CC)C(=O)N3CCC[C@H]3C(=O)N(C)[C@H]3C/C=C\CCN(C3=O)[C@@H](Cc3ccc(C)cc3)C(=O)N(C)CC(=O)N[C@@H](CCc3cc(F)c(C(F)(F)F)c(F)c3)C(=O)N2C1 [PP1797]	A (a compound having 10 or more and less than 20 is denoted as A)	A (a compound having 10 or more and less than 20 is denoted as A)
0.1 nM	22.4 nM	CCCN(C)C(=O)[C@@H]1CC(=O)N(C)[C@@H](C2CC2)C(=O)N[C@@H]([C@@H](C)CC)C(=O)N(C)CC(=O)N(C)[C@H]2C/C=C\CCN(C2=O)[C@@H](Cc2ccc(C(F)(F)F)cc2)C(=O)N(C)CC(=O)N[C@@H](CCc2cc(F)c(C(F)(F)F)c(F)c2)C(=O)N2C[C@H](OCC)C[C@H]2C(=O)NC2(CCC2)C(=O)N(C)[C@@H](C2CCCC2)C(=O)N1C [PP1994]	AA (a compound having 20 or more is denoted as AA)	A (a compound having 10 or more and less than 20 is denoted as A)
0.097 nM	6.6 nM	CCO[C@@H]1C[C@H]2C(=O)NC3(CC(C)(C)C3)C(=O)N(C)[C@@H](C3CCCC3)C(=O)N(C)[C@H](C(=O)N(C)CC)CC(=O)N(C)[C@@H](CC(C)C)C(=O)N[C@@H]([C@@H](C)CC)C(=O)NCC(=O)N(C)[C@H]3C/C=C\CCN(C3=O)[C@@H](Cc3ccc(C(F)(F)F)cc3)C(=O)N(C)CC(=O)N[C@@H](CCc3cc(F)c(C(F)(F)F)c(F)c3)C(=O)N2C1 [PP1771]	A (a compound having 10 or more and less than 20 is denoted as A)	A (a compound having 10 or more and less than 20 is denoted as A)
0.14 nM	20.2 nM	CCCN(C)C(=O)[C@@H]1CC(=O)N(C)[C@@H](C2CC2)C(=O)N[C@@H]([C@@H](C)CC)C(=O)N(C)CC(=O)N(C)[C@H]2C/C=C\CCN(C2=O)[C@@H](Cc2ccc(C(F)(F)F)cc2)C(=O)N(C)CC(=O)N[C@@H](CCc2ccc(C(F)(F)F)c(OC)c2)C(=O)N2C[C@H](OCC)C[C@H]2C(=O)NC2(CC(C)(C)C2)C(=O)N(C)[C@@H](C2CCCC2)C(=O)N1C [PP1983]	AA (a compound having 20 or more is denoted as AA)	A (a compound having 10 or more and less than 20 is denoted as A)

More lines, now with the values behind:

Structure (SMILES)	Kd [1]	IC50 [4]	NRAS/KRAS (KD ratio) [2]	HRAS/KRAS (KD ratio) [3]
CCO[C@@H]1C[C@H]2C(=O)NC3(CCC3)C(=O)N(C)[C@@H](C3CCCC3)C(=O)N(C)[C@H](C(=O)N(C)CC)CC(=O)N(C)[C@@H](CC3CC3)C(=O)N[C@@H]([C@@H](C)CC)C(=O)N(C)CC(=O)N(C)[C@H]3C/C=C\CCN(C3=O)[C@@H](Cc3ccc(C)cc3)C(=O)N(C)CC(=O)N[C@@H](CCc3ccc(C(F)(F)F)c(OC)c3)C(=O)N2C1 [PP1879]	0.18 nM	16.9 nM	A (a compound having 10 or more and less than 20 is denoted as A)	B (a compound having 3 or more and less than 10 is denoted as B)
CCO[C@@H]1C[C@H]2C(=O)NC3(CC(C)(C)C3)C(=O)N(C)[C@@H](C3CCCC3)C(=O)N(C)[C@H](C(=O)N(C)CC)CC(=O)N(C)[C@@H](CC)C(=O)N[C@@H]([C@@H](C)CC)C(=O)N(C)CC(=O)N(C)[C@H]3C/C=C\CCN(C3=O)[C@@H](Cc3ccc(C(F)(F)F)cc3)C(=O)N(C)CC(=O)N[C@@H](CCc3ccc(C(F)(F)F)c(OC)c3)C(=O)N2C1 [PP1653]	0.097 nM	1.6 nM	A (a compound having 10 or more and less than 20 is denoted as A)	A (a compound having 10 or more and less than 20 is denoted as A)
CCO[C@@H]1C[C@H]2C(=O)NC3(CC(C)(C)C3)C(=O)N(C)[C@@H](C3CCCC3)C(=O)N(C)[C@H](C(=O)N(C)C)CC(=O)N(C)[C@@H](C)C(=O)N[C@@H]([C@@H](C)CC)C(=O)N(C)CC(=O)N(C)[C@H]3C/C=C\CCN(C3=O)[C@@H](Cc3ccc(C(F)(F)F)cc3)C(=O)N(C)CC(=O)N[C@@H](CCc3cc(F)c(C(F)(F)F)c(F)c3)C(=O)N2C1 [PP1641]	0.098 nM	4.6 nM	A (a compound having 10 or more and less than 20 is denoted as A)	A (a compound having 10 or more and less than 20 is denoted as A)
CCO[C@@H]1C[C@H]2C(=O)NC3(CC(C)(C)C3)C(=O)N(C)[C@@H](C3CCCC3)C(=O)N(C)[C@H](C(=O)N(C)CC)CC(=O)N(C)[C@@H](CC3CC3)C(=O)N[C@@H]([C@@H](C)CC)C(=O)N(C)CC(=O)N(C)[C@H]3C/C=C\CCN(C3=O)[C@@H](Cc3ccc(C(F)(F)F)cc3)C(=O)N(C)CC(=O)N[C@@H](CCc3ccc(C(F)(F)F)c(OC)c3)C(=O)N2C1 [PP1678]	0.17 nM	5.6 nM	A (a compound having 10 or more and less than 20 is denoted as A)	B (a compound having 3 or more and less than 10 is denoted as B)
CCO[C@@H]1C[C@H]2C(=O)NC3(CC(C)(C)C3)C(=O)N(C)[C@@H](C3CCCC3)C(=O)N(C)[C@H](C(=O)N(C)C)CC(=O)N(CC)[C@@H](CC(C)C)C(=O)N[C@@H]([C@@H](C)CC)C(=O)NCC(=O)N(C)[C@H]3C/C=C\CCN(C3=O)[C@@H](Cc3ccc(C(F)(F)F)cc3)C(=O)N(C)CC(=O)N[C@@H](CCc3cc(F)c(C(F)(F)F)c(F)c3)C(=O)N2C1 [PP1772]	0.23 nM	13.4 nM	B (a compound having 3 or more and less than 10 is denoted as B)	B (a compound having 3 or more and less than 10 is denoted as B)
CCC[C@H]1C(=O)N[C@@H]([C@@H](C)CC)C(=O)N(C)CC(=O)N(C)[C@H]2C/C=C\CCN(C2=O)[C@@H](Cc2ccc(C)cc2)C(=O)N(C)CC(=O)N[C@@H](CCc2ccc(C(F)(F)F)c(Cl)c2)C(=O)N2C[C@H](OCC)C[C@H]2C(=O)NC2(CCC2)C(=O)N(C)[C@@H](C2CCCC2)C(=O)N(C)[C@H](C(=O)N(C)CC)CC(=O)N1C [PP1895]	0.13 nM	15.6 nM	A (a compound having 10 or more and less than 20 is denoted as A)	B (a compound having 3 or more and less than 10 is denoted as B)
CCC[C@H]1C(=O)N[C@@H]([C@@H](C)CC)C(=O)N(C)CC(=O)N(C)[C@H]2C/C=C\CCN(C2=O)[C@@H](Cc2ccc(C(F)(F)F)cc2)C(=O)N(C)CC(=O)N[C@@H](CCc2cc(F)c(C(F)(F)F)c(F)c2)C(=O)N2CC(F)(F)C[C@H]2C(=O)NC2(CC(C)(C)C2)C(=O)N(C)[C@@H](C2CCCC2)C(=O)N(C)[C@H](C(=O)N(C)C)CC(=O)N1C [PP1711]	0.093 nM	5 nM	A (a compound having 10 or more and less than 20 is denoted as A)	B (a compound having 3 or more and less than 10 is denoted as B)
